Reference: US8158621B2, “Methods of treating or preventing autoimmune diseases with 2,4-pyrimidinediamine compounds” (Rigel Pharmaceuticals, Inc., priority 2002, dated 2012)
Like-named read-outs stand apart in the source and are kept apart here.

System: Human Jurkat T-cells (clone N)
Test: Jurkat T-cell activation (anti-TCR, CD69 upregulation)
Format: cell-based
Summary of the method: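 Readout is CD69 upregulation by flow cytometry (anti-CD69-APC, 20 min at 4 °C) after 20 h anti-TCR (C305, 500 ng/ml) stimulation at 37 °C.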

| Structure (SMILES) | IC50 | IC50 (Homo sapiens, Jurkat) | further results |
| --- | --- | --- | --- |
| OB(O)c1cccc(Nc2ncc(F)c(Nc3ccc4c(c3)OCCO4)n2)c1 [Compound R926837] | > 10 µM |  |  |
| CC(C)(C)c1ccc(Nc2ncc(F)c(Nc3ccc(C(C)(C)C)cc3)n2)cc1 [Compound R926222] |  | > 10 µM |  |
| CNC(=O)COc1cccc(Nc2ncc(F)c(Nc3cccc(Cl)c3)n2)c1 [Compound R926832] | 2.99 µM |  |  |
| CC(C)c1ccc(Nc2ncc(F)c(Nc3ccc4c(c3)OCCO4)n2)cc1 [Compound R926790] |  | > 10 µM |  |
| Cc1ccc(Nc2ccnc(Nc3ccc(C)c([N+](=O)[O-])c3)n2)cc1[N+](=O)[O-] [Compound R950153] |  |  | IC50 (Homo sapiens): > 10 µM |
| CCOC(=O)COc1ccc(Nc2nc(Cl)c(Cl)c(Nc3ccc(OCC(=O)OCC)cc3)n2)cc1 [Compound R926569] | > 10 µM |  |  |
| CNC(=O)COc1cccc(Nc2ncc(F)c(Nc3cc(OC)cc(C(F)(F)F)c3)n2)c1 [Compound R926833] | 11.8 µM |  |  |
| Fc1cnc(Nc2ccc(-n3cnc(Cl)c3Cl)cc2)nc1Nc1ccc2c(c1)OCCO2 [Compound R926788] |  | > 10 µM |  |
| CC(=O)Nc1cccc(Nc2ncc(F)c(Nc3cccc(NC(C)=O)c3)n2)c1 [Compound R926682] |  | 5.95 µM |  |
| CC(C)Oc1ccc(Nc2nc(Nc3cccc(OCC(=O)O)c3)ncc2F)cc1 [Compound R926731] | > 10 µM |  |  |
| C=CCNc1ncc(F)c(Nc2ccc3c(c2)OCCO3)n1 [Compound R925823] |  | 9.33 µM |  |
| CSc1nc(Nc2ccc3c(c2)OCCO3)nc(Nc2ccc3c(c2)OCCO3)c1Cl [Compound R926475] | > 10 µM |  |  |
| CNC(=O)COc1cccc(Nc2nc(Nc3ccc4c(c3)NCCO4)ncc2F)c1 [Compound R909247] | 3 µM |  |  |
| c1cc2c(cc1Nc1cc(Nc3ccc4c(c3)OCCO4)nc(Nc3ccc4c(c3)OCCO4)n1)OCCO2 [Compound R926516] |  | 17.8 µM |  |
| OCCOc1ccc(Nc2ncc(F)c(Nc3cccc(O)c3)n2)cc1 [Compound R926376] |  | > 10 µM |  |
| Oc1cccc(Nc2nc(Nc3ccc4oc(CN5CCNCC5)cc4c3)ncc2F)c1 [Compound R926770] | 0.891 µM |  |  |
| Oc1cccc(Nc2nc(Nc3cccc(-c4cnco4)c3)ncc2F)c1 [Compound R926831] |  | 1.27 µM |  |

| Structure (SMILES) | IC50 | IC50 (Homo sapiens, Jurkat) | further results |
| --- | --- | --- | --- |
| O=C(O)C1CCC(Nc2nc(Nc3ccc4c(c3)OCCO4)ncc2F)CC1 (stereo not drawn) [Compound R925795] |  | > 10 µM |  |
| O=C(COc1cccc(Nc2ncc(F)c(Nc3cccc(O)c3)n2)c1)NCC(O)CO (stereo not drawn) [Compound R926746] | 3.7 µM |  |  |
| CSc1nc(Nc2cccc(O)c2)nc(Nc2cccc(O)c2)c1Cl [Compound R926595] | > 10 µM |  |  |
| CCOC(=O)COc1ccc(Nc2ncc(Br)c(Nc3ccc(OCC(=O)OCC)cc3)n2)cc1 [Compound R925779] | > 10 µM |  |  |
| CCOc1ccc(Nc2ncc(F)c(Nc3ccc(OC)c(OC)c3)n2)cc1 [Compound R926145] |  | 17.7 µM |  |
| COC(=O)COc1ccc(Nc2ncc(F)c(Nc3ccc(OCC(=O)OC(C)(C)C)cc3)n2)cc1 [Compound R926572] | > 10 µM |  |  |
| Brc1cnc(Nc2ccccc2-c2ccccc2)nc1Nc1ccccc1-c1ccccc1 [Compound R925798] |  | > 10 µM |  |
| O=C(COc1ccc(Nc2ncc(F)c(Nc3ccc4c(c3)OCCO4)n2)cc1)NCCO [Compound R909239] | 3.06 µM |  |  |
| O=C(COc1cccc(Nc2ncc(F)c(Nc3ccc4c(c3)OCCO4)n2)c1)N1CCOCC1 [Compound R926484] | > 10 µM |  |  |
| O=[N+]([O-])c1cc(Nc2ncc(F)c(Nc3ccc(F)c([N+](=O)[O-])c3)n2)ccc1F [Compound R950148] |  |  | IC50 (Homo sapiens): > 10 µM |
| CNC(=O)COc1cccc(Nc2nc(Nc3cccc(O)c3)ncc2C(F)(F)F)c1 [Compound R926741] | 4.59 µM |  |  |
| N#Cc1cnc(Nc2ccc(OCC(=O)NCC(O)CO)cc2)nc1Nc1cccc(O)c1 (stereo not drawn) [Compound R925846] | > 10 µM |  |  |
| OCc1cccc(Nc2ncc(F)c(Nc3cccc(CO)c3)n2)c1 [Compound R925757] |  | > 10 µM |  |
| CNC(=O)COc1cccc(Nc2ncc(F)c(Nc3ccc4c(c3)OCCN4C)n2)c1 [Compound R908705] | 5.88 µM |  |  |
| O=C(O)c1cc2cc(Nc3ncc(F)c(Nc4cccc(O)c4)n3)ccc2[nH]1 [Compound R926479] |  | > 10 µM |  |
| Fc1cnc(Nc2ccc3c(c2)OCCO3)nc1NC1CCCCC1 [Compound R925794] |  | > 10 µM |  |

The next lines start with results.

| IC50 | IC50 (Homo sapiens, Jurkat) | Structure (SMILES) | further results |
| --- | --- | --- | --- |
| 2.88 µM |  | COC(=O)Cn1ncc2ccc(Nc3ncc(F)c(Nc4ccc5c(c4)OCCO5)n3)cc21 [Compound R935208] |  |
| 5.7 µM |  | CNC(=O)CCn1ncc2ccc(Nc3ncc(F)c(Nc4ccc5oc(C(=O)NC)cc5c4)n3)cc21 [Compound R935297] |  |
| 7.54 µM |  | CCOC(=O)C(C)(C)c1ccc(Nc2nc(Nc3cccc(O)c3)ncc2F)cc1 [Compound R935169] |  |
| 2.16 µM |  | Fc1cnc(Nc2ccc3c(c2)OCCO3)nc1Nc1ccc(OCc2nc(-c3ccccc3)no2)cc1 [Compound R935140] |  |
|  | 21.4 µM | Nc1ccc(F)c(Nc2ncc(F)c(Nc3cc(N)ccc3F)n2)c1 [Compound R950158] |  |
|  | > 10 µM | COC(=O)c1cc2cc(Nc3ncc(F)c(Nc4cccc(C(C)(C)C)c4)n3)ccc2o1 [Compound R940281] |  |
| > 10 µM |  | CNC(=O)COc1cccc(Nc2ncc(F)c(Nc3ccc(OCCC(=O)O)cc3)n2)c1 [Compound R950344] |  |
| > 10 µM |  | CC(C)Oc1ccc(Nc2ncc(F)c(Nc3ccc4[nH]ncc4c3)n2)cc1 [Compound R935266] |  |
| 8.93 µM |  | CN1CCN(C(=O)CNc2cccc(Nc3ncc(F)c(Nc4cccc(NCCO)c4)n3)c2)CC1 [Compound R950240] |  |
| > 10 µM |  | COc1ccc(Nc2ncc([N+](=O)[O-])c(Nc3ccc(OC)c(OC)c3)n2)cc1OC [Compound R940089] |  |
|  | 4.24 µM | COc1ccc(Nc2nc(Nc3cccc(O)c3)ncc2F)cc1Cl [Compound R926945] |  |
| > 10 µM |  | CNC(=O)Cn1ncc2ccc(Nc3ncc(F)c(Nc4ccc5cnn(CC(=O)NC)c5c4)n3)cc21 [Compound R935206] |  |
| 3.93 µM |  | Fc1cnc(Nc2ccc3c(c2)OCCO3)nc1Nc1ccc2[nH]ncc2c1 [Compound R935267] |  |
| 22.7 µM |  | COC(=O)Cn1ncc2ccc(Nc3nc(Nc4ccc(OC(C)C)cc4)ncc3F)cc21 [Compound R935218] |  |
| 4.57 µM |  | COC(=O)Cn1ncc2cc(Nc3ncc(F)c(Nc4ccc5c(c4)OCCO5)n3)ccc21 [Compound R935223] |  |
| > 10 µM |  | CS(=O)(=O)Nc1ccc(Nc2ncc(F)c(Nc3ccc(NS(C)(=O)=O)cc3)n2)cc1 [Compound R950083] |  |
| 2.92 µM |  | O=C1CN=C2COc3ccc(Nc4nc(Nc5cccc(O)c5)ncc4F)cc3N12 [Compound R945236] |  |
| 2.55 µM |  | CNC(=O)COc1cccc(Nc2ncc(F)c(Nc3ccc(OC(F)(F)F)cc3)n2)c1 [Compound R926879] |  |
| 2.23 µM |  | Cn1nnnc1COc1ccc(Nc2ncc(F)c(Nc3ccc(OCc4nnnn4C)cc3)n2)cc1 [Compound R945048] |  |
| 2.71 µM |  | CNC(=O)Cn1ncc2cc(Nc3ncc(F)c(Nc4ccc5c(c4)OCCO5)n3)ccc21 [Compound R935240] |  |
| 5.43 µM |  | Cc1nc(COc2cccc(Nc3nc(Nc4ccc5c(c4)OCCO5)ncc3F)c2)no1 [Compound R945137] |  |
|  | > 10 µM | N#Cc1ccc(Nc2ncc(F)c(Nc3ccc(C#N)cc3)n2)cc1 [Compound R945057] |  |
| 5.12 µM |  | O=C1Nc2cc(Nc3nc(Cl)ncc3F)ccc2OC1(F)F [Compound R940342] |  |

| IC50 | IC50 (Homo sapiens, Jurkat) | Structure (SMILES) | further results |
| --- | --- | --- | --- |
| > 10 µM |  | COc1cc(-c2ccccc2)c(C)cc1Nc1ncc(C)c(Nc2cc(C)c(-c3ccccc3)cc2OC)n1 [Compound R935003] |  |
| 1.99 µM |  | CNC(=O)COc1cccc(Nc2ncc(F)c(Nc3cccc(NC)c3)n2)c1 [Compound R950267] |  |
|  | 8.92 µM | COC(=O)c1cc2cc(Nc3ncc(F)c(Nc4cccc(N)c4)n3)ccc2o1 [Compound R950162] |  |
| 3.48 µM |  | CNC(=O)COc1ccc(Nc2ncc(F)c(Nc3ccc4c(cnn4C)c3)n2)cc1 [Compound R935216] |  |
| 3.38 µM |  | Fc1cnc(Nc2ccc3c(c2)OCCCO3)nc1Nc1ccc2c(c1)OCCCO2 [Compound R935162] |  |
|  | > 10 µM | Fc1cnc(Nc2ccc(N3CCN(Cc4ccccc4)CC3)cc2)nc1Nc1ccc2c(c1)OCCO2 [Compound R945163] |  |
|  | > 10 µM | CCCNC(=O)c1cccc(Nc2ncc(F)c(Nc3cccc(O)c3)n2)c1 [Compound R926937] |  |
| 5.9 µM |  | Nc1cccc(Nc2nc(Nc3cccc(Nc4ncc(F)c(Nc5cccc(N)c5)n4)c3)ncc2F)c1 [Compound R950137] |  |
| 0.8 µM |  | OCCCn1ncc2cc(Nc3ncc(F)c(Nc4ccc5c(c4)OCCO5)n3)ccc21 [Compound R935302] |  |
| 1.73 µM |  | CNC(=O)Cn1ncc2cc(Nc3ncc(F)c(Nc4ccc(OC(C)C)cc4)n3)ccc21 [Compound R935239] |  |
| 0.125 µM |  | CNC(=O)COc1cccc(Nc2ncc(F)c(Nc3ccc4c(c3)C(N)CCO4)n2)c1 (stereo not drawn) [Compound R950368] |  |
| > 10 µM |  | COC(=O)c1ccc(Cn2ncc3ccc(Nc4ncc(F)c(Nc5cccc(O)c5)n4)cc32)c(OC)c1 [Compound R935321] |  |
| 20.3 µM |  | O=C(CNc1cccc(Nc2ncc(F)c(Nc3cccc(O)c3)n2)c1)N1CCOCC1 [Compound R950221] |  |
| 1.27 µM |  | OCCCn1ncc2ccc(Nc3ncc(F)c(Nc4ccc5oc(CO)cc5c4)n3)cc21 [Compound R935308] |  |
|  | 2.02 µM | CC1(Cl)CC(Nc2ncc(F)c(Nc3ccc4c(c3)-n3ccnc3CO4)n2)=CC=C1O (stereo not drawn) [Compound R935263] |  |
| 0.631 µM |  | N#CCOc1ccc(Nc2nc(Nc3cccc(O)c3)ncc2F)cc1 [Compound R945071] |  |
| 6.01 µM |  | O=C(c1cccc(Nc2ncc(F)c(Nc3ccc4cc[nH]c4c3)n2)c1)N1CCOCC1 [Compound R926934] |  |
| 5.53 µM |  | COC(=O)COc1cc(O)cc(Nc2ncc(F)c(Nc3cccc(O)c3)n2)c1 [Compound R926927] |  |
|  | > 10 µM | Nc1c(F)ccc(Nc2ccnc(Nc3ccc(F)c(N)c3F)n2)c1F [Compound R950131] |  |
| > 10 µM |  | CNCCNC(=O)c1cc2cc(Nc3ncc(F)c(Nc4ccc5oc(C(=O)NCCNC)cc5c4)n3)ccc2o1 [Compound R950170] |  |
| > 10 µM |  | CNC(=O)COc1cccc(Nc2nc(Nc3cccc(C(C)(C)C)c3)ncc2F)c1 [Compound R940267] |  |
|  | 9.64 µM | N#Cc1cccc(Nc2nc(Nc3cccc(O)c3)ncc2F)c1 [Compound R945109] |  |
